These results are taken from patent publication US6765104B1, “Transition metal complexes of n, n',n″trialkyl-cis-1,3,5-triaminocyclohexane and related compositions and methods of synthesis and use” (The United States of America as represented by the …, priority 1999, dated 2004).

The nature of data set [1]: Hydrolysis of bis(p-nitrophenyl)phosphate, initial rate of 4-nitrophenolate formation at 400 nm. Format: biochemical. The method, then: The copper (II) complex of N,N′,N″-trimethyl-cis,cis-1,3,5-triaminocyclohexane prepared in accordance with the method of Example 2 (1 mM) was combined with bis(4-nitrophenyl)phosphate (1 mM) and HEPES (50 mM), pH 7.24, at 50° C. and incubated, while monitoring for an increase in absorbance at 400 nm. An aliquot was withdrawn and analyzed by reverse phase HPLC, eluted with a linear gradient of 100% 50 mM acetic acid/50 mM triethylamine to 100% methanol over thirty minutes. The signals observed in the reaction mixture corresponded to the predicted hydrolytic products, p-nitrophenyl phosphate (10.5 min) and 4-nitrophenolate (16.8 min), as well as unreacted bis(p-nitrophenyl)phosphate (20.2 min). Products were confirmed by co-injection of standards.
(§1) Measurements were performed as previously described (Deal et al. (Inorg. Chem. 1996), supra). Briefly, the initial rate of formation of 4-nitrophenolate was monitored spectrophotometrically at 400 nm for 1 hr or for less than 10% conversion of bis(p-nitrophenyl)phosphate to products. Reactions were run in sets of four, triplicate reaction mixtures and one reference. Spontaneous hydrolysis of the phosphate diester was corrected in the reference, which was identical to the reaction mixture, except lacking metal complex. The concentration of 4-nitrophenolate was calculated from the absorbance using an extinction coefficient of 18700 L mol^−1 cm^−1. The initial rate was obtained from the slope of the plots of 4-nitrophenolate concentration vs. time.

For data set [2] the following is noted: Deal et al. (Inorg. Chem. 1996); cited from earlier work.
For data set [3], the system named is Chinese hamster V79 cells. In words: Cytotoxicity by macroscopic colony formation, surviving fraction of V79 cells. Format: cell-based. Conditions: for treated cells that survive: concentration of 3 mM, FIG. 1. The method, then: Chinese hamster V79 cells were maintained in a 5% CO2/95% air humidified atmosphere at 37° C. in nutrient mixture F12 with 10% heat-inactivated fetal bovine serum and antibiotics. One day before each experiment, 5×10^5 V79 cells were plated into 100 mm petri dishes and incubated overnight The cells were exposed to the copper complex of N,N′,N″-triethyl-cis,cis-1,3,5-triaminocyclohexane or N,N,N″-triethyl-cis,cis-1,3,5-triaminocyclohexane or the corresponding ligand of N,N′,N″-triethyl-cis,cis-1,3,5-triaminocyclohexane or N,N′,N″-triethyl-cis,cis-1,3,5-triaminocyclohexane alone for 1 or 24 hours, after which they were rinsed, trypsinized, and plated for macroscopic colony formation. After incubating for 7 days, colonies were fixed with methanol/acetic acid and stained with crystal violet. Colonies larger than 50 cells were counted.

Data set [4] in a line: Hydrolysis of ethyl (p-nitrophenyl)phosphate. Format: biochemical. The method, then: as §1
Bis(p-nitrophenyl)phosphate was hydrolyzed more rapidly than ethyl (p-nitrophenyl)phosphate, which was hydrolyzed more rapidly than p-nitrophenyl phosphate. Thus, the rate of metal-promoted hydrolysis is dependent on the electron-withdrawing ability of the leaving group. Leaving groups which are strongly electron-withdrawing are considered activated and hydrolyze more rapidly. […]

Data set [5] relates to hypoxic MCF-7 human mammary carcinoma cells. In words: Cytotoxicity to hypoxic MCF-7 cells, surviving fraction. Format: cell-based. The settings on record: 1500 μM, 1 hour, FIG. 3. The method, then:
(§2) MCF-7 human mammary carcinoma cells were maintained in a 5% CO2/95% air humidified atmosphere at 37° C. in RPMI 1640 with 10% heat-inactivated fetal bovine serum and antibiotics. For hypoxia experiments, 3×10^5 MCF-7 cells were plated into glass flasks, and incubated overnight The flasks were sealed with a rubber stopper, and two hypodermic needles were inserted to allow for gassing. Flasks were gassed with a 95% nitrogen/5% carbon dioxide mixture for one hour. The copper complex was added to the cells after they were hypoxic through a glass sidearm connected to the flask by a ground glass connection. Cells were incubated for 1 hour for experiments to assess the toxicity of the copper complex, then plated and incubated as described previously in Example 4.

Data set [6] shares this test system. In words: Hypoxic irradiation with the copper complex, surviving fraction of MCF-7 cells. Format: cell-based. The settings on record: 15 minutes with complex, then irradiated, FIG. 4. The method, then: as §2, with “4. For hypoxic irradiation experiments, cells were incubated with the copper complex for 15 minutes, then irradiated, plated and incubated as described previously in Example 4. Cells were irradiated with an Eldorado 8 Cobalt-60 teletherapy machine (Theratronics International Ltd., Kanata, Ontario, Canada). The dose rate varied form 200 to 150 cGy/min during the course of this study. Decay corrections were done monthly, and full electron equilibrium was ensured for all irradiations.” for “4.”

As to `O=P(O)(O)OP(=O)(O)O` [pyrophosphate, reference compound], the “inhibition of the hydrolysis reaction” value in data set [1] (0.5 equivalents relative to the copper complex) was “completely inhibited”.

With “copper (II) triazacyclononane [copper (II) triazacyclononane system]”, the “rate of phosphate diester hydrolysis” value in data set [2] was 1.3e-06 s⁻¹.

Consider “copper complex of N,N′,N″-triethyl-cis,cis-1,3,5-triaminocyclohexane”, for which the “treated cells that survive” value in data set [3] turned out to be 15%.

Usually Km stands for the substrate concentration at which the rate is half of its maximum. Regarding “copper complex of N,N′,N″-trimethyl-cis,cis-1,3,5-triaminocyclohexane”, in data set [1], the “rate of phosphate diester hydrolysis relative to the copper (II) triazacyclononane system” value is “approximately 6.5 times faster”. For the same compound, the “pKa from plot of log initial rate versus pH (Dixon method)” value in data set [1] (consistent with deprotonation of a copper(II) coordinated water molecule) was 7.3. Moreover, the “maximal velocity (Vmax)” value in data set [1] (modified Lineweaver-Burke function) came out at 9.3e-08 s⁻¹. In data set [1] (modified Lineweaver-Burke function, read-out: Michaelis Constant (Km)), the Km is 4.4 mM. The “rate acceleration compared to the copper (II) triazacyclononane system” value in data set [4] turned out to be 6.7. For the same compound, the “concentration producing approximately the same effect, cells treated for 1 hr” value in data set [3] (1 hr, FIG. 2) came to 4000 µM. The “concentration producing approximately the same effect, cells treated for 24 hrs” value in data set [3] (24 hrs, FIG. 2) came to 1000 µM. The “treated cells that survive” value in data set [3] turned out to be 3%. The “treated hypoxic cells destroyed” value in data set [5] is “approximately 99%”. Also, the “radiation alone needed for the same effect as radiation plus the copper complex” value in data set [6] is recorded as “Approximately twice”.
